Test results as given in PMC8151276, “An Integrated Approach toward NanoBRET Tracers for Analysis of GPCR Ligand Engagement” (Molecules, 2021).

Molecular target: T1, MC5R (Homo sapiens, UniProt P33032)
T1 construct: purchased Promega (in-house HiBiT-GPCR construct library, NanoBRET)
Experiment: NanoBRET screen HiBiT-MC5R in HEK293
Format: binding
Method: Each tracer candidate was screened across the entire library of HiBiT-GPCR constructs using NanoBRET as the detection modality. As depicted in Figure 4A, the specificity of interactions was evaluated through decrease in BRET due to competitive displacement of a bound tracer by excess parental compound. Each tracer was analyzed for binding to each HiBiT-GPCR fusion in the absence and in the presence of competing parental compound. Briefly, HEK293 cells were transfected with HiBiT-GPCR constructs diluted into promoterless DNA to reduce expression and maximize translocation to the cell surface. Each tracer candidate was then screened at concentrations of 1 μM and 0.1 μM across cells expressing these fusions. Cells were treated for 1.5 h with tracer either alone or in the presence of 20 μM competing parental compound (i.e., control). BRET was measured upon addition of purified LgBiT and subsequent complementation with HiBiT genetically fused to a GPCR. The specificity of interactions was assessed through a decrease in BRET signal due to competitive displacement of the bound tracer. To further gauge the robustness of these interactions, the fold response over the control (i.e., BRETtracer/BRETcontrol) was calculated. We chose a 1.5-fold response, which translates to ≥7-fold signal over noise as the minimal threshold required to score an interaction as positive.
HiBiT-GPCR DNA constructs were diluted in 10 mM Tris pH 8 to a final concentration of 0.01 μg/μL, arrayed in 96-well plates and stored at −20 °C. For transfection, HEK293 cells were suspended in Opti-MEM (without phenol red) supplemented with 2% fetal bovine serum (Seradigm) and 100 units/mL penicillin–streptomycin (Gibco) at a final concentration of 220,000 cells/mL and dispensed into white 96-well plates at 90 μL/well. Subsequent transfections and screens were carried using an Agilent Bravo Automated Liquid Handling Platform. First, the 96-well HiBiT DNA arrays were diluted 25-fold in Opti-MEM (without serum or phenol red) to a final concentration of 0.0004 μg/μL and 20 μL of the diluted DNAs were transferred into new 96-well plates. Next, promoterless carrier DNA (1 μg/μL) was diluted 25-fold (0.04 μg/μL) and then dispensed into the diluted arrays at 20 μL/well. Following brief mixing, Viafect transfection reagent (Promega) diluted 16-fold into Opti-MEM was dispensed into the plates at 40 μL/well. After mixing by pipetting, plates were incubated for 10 min on the pipetting station deck. The DNA-transfection reagent complexes were then added to plates containing cells. To facilitate the screen, 10 μL of DNA-transfection reagent complexes were added in duplicates to the top 4 and bottom 4 rows, resulting in two identical 48-well arrays per plate. Plates with transfected cells were incubated for 18–20 h at 37 °C/5% CO2. A screen of each tracer across the entire library using two different concentrations requires duplicate plates of transfected cells. Depending on the number of tracers being screened, transfections can be scaled up using the same ratios. The next day, for each tracer, four 20× screening solutions in tracer dilution buffer (Promega) were prepared: two duplicates at final concentration of 20 μM and two duplicates at a final concentration of 2 μM. […] The four resulting solutions were diluted 4-fold in Opti-MEM without serum or phenol red to generate 5× solutions (5 µM and 0.5 µM tracer +/− 100 μM competing compound). To screen the library, a BioTek MultiFlo FX liquid dispenser was used to dispense 22.5 µL of tracer solution to the top 4 rows and 22.5 µL tracer + competing compound solution to the 4 bottom rows. Plates were briefly mixed on an orbital shaker and incubated for 1.5 h at room temperature. […] Plates were briefly mixed on an orbital shaker and incubated for 15 min to allow complementation.

T1 sequence (P33032 whole entry): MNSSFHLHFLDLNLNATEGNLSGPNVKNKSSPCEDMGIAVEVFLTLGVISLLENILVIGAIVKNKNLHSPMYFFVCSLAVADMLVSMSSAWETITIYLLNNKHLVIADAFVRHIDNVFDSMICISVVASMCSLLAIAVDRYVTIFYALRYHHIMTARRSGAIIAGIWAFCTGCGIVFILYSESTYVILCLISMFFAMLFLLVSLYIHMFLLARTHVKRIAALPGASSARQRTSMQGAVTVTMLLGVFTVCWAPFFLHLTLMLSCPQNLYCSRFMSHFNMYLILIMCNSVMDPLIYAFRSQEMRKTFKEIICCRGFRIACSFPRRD

Compound | NanoBRET Fold Response (MC5R, tracer 0.1μM) | NanoBRET Fold Response (MC5R, tracer 1μM) | further results
CCOC(=O)c1cc(C#N)c(N2CCC(C(=O)NS(=O)(=O)Cc3ccccc3/C=C/C(=O)NCCNC(=O)CCc3ccc4n3[B-](F)(F)[N+]3=C(c5ccc[nH]5)C=CC3=C4)CC2)nc1C [AZD1283-1-NB590] |  |  | NanoBRET Fold Response (MC5R, 1μM): 0.99
N#CN=C(NCCCOc1cccc(CN2CCCCC2)c1)NCCNC(=O)CCOCCOCCOCCOCCNC(=O)CCc1ccc2n1[B-](F)(F)[N+]1=C(c3ccc[nH]3)C=CC1=C2 [Aminopotentidine-2-NB590] | 1.01 | 0.94 | 
CN(C)CCC=C1c2ccccc2CCc2ccc(C(=O)NCCNC(=O)CCOCCOCCOCCOCCNC(=O)CCc3ccc4n3[B-](F)(F)[N+]3=C(c5ccc[nH]5)C=CC3=C4)cc21 [Amitriptyline-b-2-NB590] |  |  | NanoBRET Fold Response (tracer at 0.1μM): 1.02; NanoBRET Fold Response (tracer at 1μM): 1.00
COc1ccc2c(n1)c(CCNC(C)=O)cn2CCNC(=O)CCc1ccc2n1[B-](F)(F)[N+]1=C(c3ccc[nH]3)C=CC1=C2 [Azamelatonin-1-NB590] |  |  | NanoBRET Fold Response (0.1μM tracer): 1.01; NanoBRET Fold Response (1μM tracer): 1.04
COc1ccc2[nH]c(-c3ccc(CNC(=O)CCOCCOCCOCCOCCNC(=O)CCc4ccc5n4[B-](F)(F)[N+]4=C(c6ccc[nH]6)C=CC4=C5)cc3)c(CCNC(C)=O)c2n1 [AzomelatoninICO9-2-NB590] |  |  | NanoBRET Fold Response (0.1μM tracer): 0.94; NanoBRET Fold Response (1μM tracer): 0.97
O=C(CCOCCOCCOCCOCCNC(=O)CCc1ccc2n1[B-](F)(F)[N+]1=C(c3ccc[nH]3)C=CC1=C2)NCCCN1CCN(C2=Nc3cc(Cl)ccc3Nc3ccccc32)CC1 [Clozapine-a-2-NB590] |  |  | NanoBRET Fold Response (MC5R, 0.1μM tracer): 1.04
CN1CCN(C2=Nc3cc(Cl)ccc3Nc3ccc(CNC(=O)CCOCCOCCOCCOCCNC(=O)CCc4ccc5n4[B-](F)(F)[N+]4=C(c6ccc[nH]6)C=CC4=C5)cc32)CC1 [Clozapine-b-2-NB590] |  |  | NanoBRET Fold Response (MC5R, 0.1μM tracer): 1.05; NanoBRET Fold Response (MC5R, 1μM tracer): 1.04
CN1CCN(C2=Nc3cc(Cl)ccc3N(CC(=O)NCCOCCOCCOCCOCCNC(=O)CCc3ccc4n3[B-](F)(F)[N+]3=C(c5ccc[nH]5)C=CC3=C4)c3ccccc32)CC1 [Clozapine-c-2-NB590] |  |  | NanoBRET Fold Response (MC5R, 0.1μM tracer): 1.01; NanoBRET Fold Response (MC5R, 1μM tracer): 1.06
O=C(CCOCCOCCOCCOCCNC(=O)CCc1ccc2n1[B-](F)(F)[N+]1=C(c3ccc[nH]3)C=CC1=C2)NCCCN1CCN(C2=Nc3ccccc3Oc3ccc(Cl)cc32)CC1 [Loxapine-a-2-NB590] | 1.04 |  | 
COc1ccccc1N1CCN(CCCCN2C(=O)c3ccc(CNC(=O)CCOCCOCCOCCOCCNC(=O)CCc4ccc5n4[B-](F)(F)[N+]4=C(c6ccc[nH]6)C=CC4=C5)cc3C2=O)CC1 [NAN-190-2-NB590] | 0.98 | 1.01 | 
COc1ccccc1N1CCN(CCCCN2C(=O)c3ccc(CNC(=O)CCOCCNC(=O)c4ccc(CNC(=O)CCc5ccc6n5[B-](F)(F)[N+]5=C(c7ccc[nH]7)C=CC5=C6)cc4)cc3C2=O)CC1 [NAN-190-3-NB590] | 0.97 | 0.96 | 
O=C(CCc1ccc2n1[B-](F)(F)[N+]1=C(c3ccc[nH]3)C=CC1=C2)NCc1ccc(C(=O)NCCOCCC(=O)N[C@@H]2CC[C@@]3(O)[C@H]4Cc5ccc(O)c6c5[C@@]3(CCN4CC3CC3)[C@H]2O6)cc1 [Naltrexone-3-NB590] |  | 1.04 | 
Cc1cc2c(s1)Nc1ccccc1N=C2N1CCN(CCCNC(=O)CCOCCOCCOCCOCCNC(=O)CCc2ccc3n2[B-](F)(F)[N+]2=C(c4ccc[nH]4)C=CC2=C3)CC1 [Olanzapine-a-2-NB590] | 0.99 | 1.04 | 
O=C(CCc1ccc2n1[B-](F)(F)[N+]1=C(c3ccc[nH]3)C=CC1=C2)NCc1ccc(C(=O)NCCOCCOCCNCC(O)COc2cccc3ccccc23)cc1 (stereo not drawn) [Propranolol-3-NB590] |  |  | NanoBRET Fold Response (MC5R, 0.1μM): 1.00; NanoBRET Fold Response (MC5R, 1μM): 0.98
O=C(CCc1ccc2n1[B-](F)(F)[N+]1=C(c3ccc[nH]3)C=CC1=C2)NCCOCCOCCNC(=O)OCCOCCN1CCN(C2=Nc3ccccc3Sc3ccccc32)CC1 [Quetiapine-a-2-NB590] | 0.97 | 1.09 | 
Cc1nc2n(c(=O)c1CCN1CCC(c3noc4cc(F)ccc34)CC1)CCCC2OC(=O)NCCOCCOCCOCCOCCNC(=O)CCc1ccc2n1[B-](F)(F)[N+]1=C(c3ccc[nH]3)C=CC1=C2 (stereo not drawn) [Risperidone-2-NB590] | 1.02 | 1.02 | 
CC(C)N(CC[C@H](c1ccccc1)c1cc(CCNC(=O)CCOCCOCCOCCOCCNC(=O)CCc2ccc3n2[B-](F)(F)[N+]2=C(c4ccc[nH]4)C=CC2=C3)ccc1O)C(C)C [Tolterodine-2-NB590] |  | 0.91 | 
CC(C)N(CC[C@H](c1ccccc1)c1cc(CCNC(=O)c2ccc(CNC(=O)CCc3ccc4n3[B-](F)(F)[N+]3=C(c5ccc[nH]5)C=CC3=C4)cc2)ccc1O)C(C)C [Tolterodine-BZ-NB590] | 1.02 | 1.02 | 
CCCn1c(=O)c2[nH]c(-c3ccc(OCC(=O)NCCNC(=O)CCOCCNC(=O)c4ccc(CNC(=O)CCc5ccc6n5[B-](F)(F)[N+]5=C(c7ccc[nH]7)C=CC5=C6)cc4)cc3)nc2n(CCC)c1=O [XAC-3-NB590] | 1.02 | 0.98 | 
